In US20250163072A1, “MACROCYCLIC COMPOUNDS FOR THE TREATMENT OF CANCER” (Hoffmann-La Roche Inc., priority 2021, published 2025) one finds IC50 data, which are given here for one compound.

Test [1] deals with T1, KRAS G12C-BRAF complex (Homo sapiens (Human), UniProt P01116+P62937, G12C). Kind of test: KRAS G12C-BRAF NanoBit assay. Type of test: cell-based. Particulars: HEK293 cells, SmBit-KRAS G12C and BRAF RBD-LgBit, 3 hours incubation. The gist of the method: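 HEK293 stable pool co-expressing SmBiT-KRAS G12C and BRAF RBD-LgBiT, exposed 3 h to compounds (16-point 3-fold dilution, top final 30 μM). Luminescence was read 20 min after Nano-Glo Live Cell substrate addition. A decrease versus DMSO control indicates disruption of the complex.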
T1 sequence (P01116-2 other isoform, or with tags, fused parts or gaps G12C): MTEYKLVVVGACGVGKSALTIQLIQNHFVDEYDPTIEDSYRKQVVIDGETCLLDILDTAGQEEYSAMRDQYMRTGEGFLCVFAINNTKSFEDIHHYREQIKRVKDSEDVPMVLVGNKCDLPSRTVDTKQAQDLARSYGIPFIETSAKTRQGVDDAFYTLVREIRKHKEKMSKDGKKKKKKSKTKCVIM
T1 sequence (P62937 whole entry): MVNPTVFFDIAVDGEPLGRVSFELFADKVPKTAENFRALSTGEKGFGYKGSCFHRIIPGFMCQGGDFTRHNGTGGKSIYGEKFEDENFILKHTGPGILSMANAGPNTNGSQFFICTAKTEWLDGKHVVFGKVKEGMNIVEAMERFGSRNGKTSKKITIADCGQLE

Test [2] has as its target T1, KRAS G12C-BRAF complex. Briefly: KRAS-BRAF with CYPA (50 nM) interaction assay (TR-FRET), G12C. Particulars: GMPPNP loaded 6His-KRAS, GST-BRAF RBD. It counts as binding. The gist of the method: (§1)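 Buffer 25 mM HEPES pH 7.4, 100 mM NaCl, 5 mM MgCl2, 10 μM GMPPNP, 0.1% BSA; final 50 nM tagless CYPA, 6.25 nM GMPPNP-loaded 6His-KRAS mutant, 1 nM GST-BRAF RBD. Compounds 16-point 3-fold series from 10 μM, 3 h; anti-6His-XL665/anti-GST-Tb added, 1.5 h; 665/615 nm ratio decrease versus DMSO.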
In general terms: In TR-FRET formats the signal depends on donor and acceptor labels being close together.

The target in test [3] is KRAS G12D binding to BRAF (Homo sapiens (Human), UniProt P01116+P62937, G12D). Briefly: KRAS-BRAF with CYPA (50 nM) interaction assay (TR-FRET), G12D. The conditions noted are these: GMPPNP loaded 6His-KRAS, GST-BRAF RBD. Put shortly: as §1
Sequence of KRAS G12D binding to BRAF (P01116-2 other isoform, or with tags, fused parts or gaps G12D): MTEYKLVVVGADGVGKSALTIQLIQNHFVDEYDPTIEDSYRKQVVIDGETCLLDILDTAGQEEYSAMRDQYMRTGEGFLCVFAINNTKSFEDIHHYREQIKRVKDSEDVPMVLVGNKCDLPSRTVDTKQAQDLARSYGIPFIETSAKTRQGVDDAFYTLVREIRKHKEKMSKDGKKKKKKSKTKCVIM
Sequence of KRAS G12D binding to BRAF (P62937 whole entry): as the sequence (P62937 whole entry) above
In another test the test system is KRAS G12V in SW620. Kind of test: pERK inhibition assay, SW620. Particulars: Homo sapiens, SW-620, SW620 cells, 4 hours incubation. It counts as cell-based, human. Put shortly:
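NCI-H358, AGS and SW620 cells in RPMI-1640/10% FBS were plated overnight, then exposed to compound (0.5% DMSO final) for 4 h. After fixation and permeabilization, phospho-ERK was quantified by in-cell ELISA (HRP secondary, TMB, OD450); IC50 from a 4-parameter sigmoidal fit.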

The subject of another test is AGS cells. Kind of test: Cell viability assay, AGS. It counts as cell-based, human. Particulars: Homo sapiens, 72 hours, Cell Counting Kit-8, read-out: G12D IC50. Put shortly: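 Cells were plated at 5,000 (NCI-H358) or 2,000 (AGS, SW620) per well and incubated overnight. They were then treated with compound in 0.5% DMSO for 72 h. Viability was read with CCK-8 as OD450 minus OD650 after 2 h, and IC50 came from a 4-parameter sigmoidal fit.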

For `CO[C@@H](C)c1ncc(N2CCOCC2)cc1-c1c2c3cc(ccc3n1CC(F)(F)F)-c1csc(n1)C[C@H](NC(=O)[C@H](C(C)C)N(C)C(=O)[C@H]1CCN(C(=O)[C@H](F)Cl)C1)C(=O)N1CCC[C@H](N1)C(=O)OCC(C)(C)C2` (atropisomer, axis not shown; (M)) [Example 25, (3S)-1-[(2R)-2-chloro-2-fluoro-acetyl]-N-[(1S)-1-[[(7S,13S)-(20M)-20-[2-[(1S)-1-methoxyethyl]-5-morpholino-3-pyridyl]-17,17-dimethyl-8,14-dioxo-21-(2,2,2-trifluoroethyl)-15-oxa-4-thia-9,21,27,28-tetrazapentacyclo[17.5.2.12,5.19,13.022,26]octacosa-1(25),2,5(28),19,22(26),23-hexaen-7-yl]carbamoyl]-2-methyl-propyl]-N-methyl-pyrrolidine-3-carboxamide], the IC50 is 20 nM against KRAS G12C-BRAF complex [1]; 32 nM at KRAS G12C-BRAF complex [2]; above 10000 nM in test [3]; 3 nM in the test on KRAS G12V in SW620; 94 nM in the test on AGS cells.

For orientation: IC50 means the point on the concentration scale where inhibition reaches its midpoint.
